US20180110223A1, “PHENOXY- OR PYRIDIN-2-YLOXY-AMINOTRIAZINE COMPOUNDS AND THEIR USE AS HERBICIDES” (BASF SE, priority 2015, published 2018)

How the values were obtained:
Assay type in all cases: in vivo
[1] = system: Polygonum convolvulus; assay: greenhouse post-emergence treatment, POLCO; conditions: 125 g/ha, scale from 0 to 100
From the text: (§1) The culture containers used were plastic flowerpots containing loamy sand with approximately 3.0% of humus as the substrate. The seeds of the test plants were sown separately for each species.
(§2) For the post-emergence treatment, the test plants were first grown to a height of 3 to 15 cm, depending on the plant habit, and only then treated with the active ingredients which had been suspended or emulsified in water. For this purpose, the test plants were either sown directly and grown in the same containers, or they were first grown separately as seedlings and transplanted into the test containers a few days prior to treatment.
(§3) Depending on the species, the plants were kept at 10-25° C. or 20-35° C., respectively.
(§4) The test period extended over 2 to 4 weeks. During this time, the plants were tended, and their response to the individual treatments was evaluated.
(§5) Evaluation was carried out using a scale from 0 to 100. 100 means no emergence of the plants, or complete destruction of at least the aerial moieties, and 0 means no damage, or normal course of growth.
(§6) The plants used in the greenhouse experiments were of the following species: […]

[2] = system: Amaranthus retroflexus; assay: greenhouse post-emergence treatment, AMARE; conditions: scale from 0 to 100
From the text: as §1, §2, §3, §4, §5, §6

[3] = system: Viola arvensis; assay: greenhouse post-emergence treatment, VIOAR; conditions: 1000 g/ha, scale from 0 to 100
From the text: as §1, §2, §3, §4, §5, §6

[4] = system: Setaria faberi; assay: greenhouse post-emergence treatment, SETFA; conditions: scale from 0 to 100
From the text: as §1, §2, §3, §4, §5, §6

[5] = system: Setaria faberi; assay: greenhouse pre-emergence treatment, SETFA; conditions: scale from 0 to 100
From the text: as §1
(§7) For the pre-emergence treatment, the active ingredients, which had been suspended or emulsified in water, were applied directly after sowing by means of finely distributing nozzles. The containers were irrigated gently to promote germination and growth and subsequently covered with transparent plastic hoods until the plants had rooted. This cover caused uniform germination of the test plants, unless this had been impaired by the active ingredients.
as §3, §4, §5, §6

[6] = system: Amaranthus retroflexus; assay: greenhouse pre-emergence treatment, AMARE; conditions: scale from 0 to 100
From the text: as §1, §7, §3, §4, §5, §6

[7] = system: Echinocloa crus-galli; assay: greenhouse pre-emergence treatment, ECHCG; conditions: scale from 0 to 100
From the text: as §1, §7, §3, §4, §5, §6

[8] = system: Echinocloa crus-galli; assay: greenhouse post-emergence treatment, ECHCG; conditions: scale from 0 to 100
From the text: as §1, §2, §3, §4, §5, §6

[9] = system: Alopecurus agrestis; assay: greenhouse post-emergence treatment, ALOMY; conditions: 500 g/ha, scale from 0 to 100
From the text: as §1, §2, §3, §4, §5, §6

[10] = system: Abutilon theophrasti; assay: greenhouse post-emergence treatment, ABUTH; conditions: scale from 0 to 100
From the text: as §1, §2, §3, §4, §5, §6

[11] = system: Abutilon theophrasti; assay: greenhouse pre-emergence treatment, ABUTH; conditions: 1000 g/ha, scale from 0 to 100
From the text: as §1, §7, §3, §4, §5, §6

Nc1nc(Oc2c(F)cc(F)c(F)c2F)nc(C2CCCO2)n1 (stereo not drawn) [Example 33]
herbicidal activity against POLCO [1]: very good (a very good herbicidal activity is given at values of at least 85)

CC(F)c1nc(N)nc(Oc2c(F)cc(F)c(F)c2F)n1 (stereo not drawn) [Example 9]
herbicidal activity against AMARE ([2]; 1000 g/ha): very good (a very good herbicidal activity is given at values of at least 85) | herbicidal activity against VIOR [3]: very good (a very good herbicidal activity is given at values of at least 85) | herbicidal activity against SETFA ([4]; 1000 g/ha): very good (a very good herbicidal activity is given at values of at least 85)

CCC(F)c1nc(N)nc(Oc2c(F)cc(F)c(F)c2F)n1 (stereo not drawn) [Example 23]
herbicidal activity against SETFA ([5]; 1000 g/ha): very good (a very good herbicidal activity is given at values of at least 85) | herbicidal activity against AMARE ([6]; 1000 g/ha): very good (a very good herbicidal activity is given at values of at least 85) | herbicidal activity against ECHCG ([7]; 1000 g/ha): very good (a very good herbicidal activity is given at values of at least 85)

Nc1nc(Oc2c(F)cc(F)c(F)c2F)nc([C@@H]2CCCO2)n1 [Example 35]
herbicidal activity against AMARE ([2]; 500 g/ha): good (a good herbicidal activity is given at values of at least 70)

CC(C)(F)c1nc(N)nc(Oc2c(F)ccc(F)c2F)n1 [Example 5]
herbicidal activity against AMARE ([2]; 1000 g/ha): very good (a very good herbicidal activity is given at values of at least 85)

CC(C)(F)c1nc(N)nc(Oc2c(F)c(F)c(F)c(F)c2F)n1 [Example 2]
herbicidal activity against ECHCG ([8]; 3000 g/ha): very good (a very good herbicidal activity is given at values of at least 85) | herbicidal activity against SETFA ([4]; 3000 g/ha): very good (a very good herbicidal activity is given at values of at least 85)

CC(C)(C#N)c1nc(N)nc(Oc2c(F)c(F)c(F)c(F)c2F)n1 [Example 22]
herbicidal activity against ALOMY [9]: good (a good herbicidal activity is given at values of at least 70)

Cc1ccc(-c2nc(N)nc(Oc3c(F)cc(F)c(F)c3F)n2)o1 [Example 32]
herbicidal activity against ABUTH ([10]; 1000 g/ha): very herbicidal activity

CCC(C)(F)c1nc(N)nc(Oc2c(F)cc(F)c(F)c2F)n1 (stereo not drawn) [Example 19]
herbicidal activity against AMARE ([2]; 500 g/ha): very good (a very good herbicidal activity is given at values of at least 85)

Cc1ncoc1-c1nc(N)nc(Oc2c(F)cc(F)c(F)c2F)n1 [Example 38]
herbicidal activity against ECHCG ([8]; 1000 g/ha): good (a good herbicidal activity is given at values of at least 70)

CC(F)c1nc(N)nc(Oc2c(F)c(F)c(F)c(I)c2F)n1 (stereo not drawn) [Example 39]
herbicidal activity against ECHCG ([8]; 500 g/ha): good (a good herbicidal activity is given at values of at least 70) | herbicidal activity against SETFA ([4]; 500 g/ha): very good (a very good herbicidal activity is given at values of at least 85)

CC(F)c1nc(N)nc(Oc2cccc(F)c2F)n1 (stereo not drawn) [Example 7]
herbicidal activity against ECHCG ([8]; 1000 g/ha): very good (a very good herbicidal activity is given at values of at least 85) | herbicidal activity against SETFA ([4]; 1000 g/ha): very good (a very good herbicidal activity is given at values of at least 85)

Nc1nc(Oc2c(F)cc(F)c(F)c2F)nc(-c2cccs2)n1 [Example 25]
herbicidal activity against ECHCG ([8]; 500 g/ha): good (a good herbicidal activity is given at values of at least 70)

CCC(F)c1nc(N)nc(Oc2c(F)c(F)c(F)c(F)c2F)n1 (stereo not drawn) [Example 24]
herbicidal activity against SETFA ([5]; 1000 g/ha): very good (a very good herbicidal activity is given at values of at least 85) | herbicidal activity against ECHCG ([7]; 1000 g/ha): very good (a very good herbicidal activity is given at values of at least 85) | herbicidal activity against ABUTH [11]: very good (a very good herbicidal activity is given at values of at least 85)

Nc1nc(Oc2c(F)cc(F)c(F)c2F)nc(C(F)(F)F)n1 [Example 11]
herbicidal activity against SETFA ([4]; 1000 g/ha): very good (a very good herbicidal activity is given at values of at least 85)

CC(C)C(F)c1nc(N)nc(Oc2c(F)cc(F)c(F)c2F)n1 (stereo not drawn) [Example 42]
herbicidal activity against SETFA ([5]; 500 g/ha): very good (a very good herbicidal activity is given at values of at least 85) | herbicidal activity against AMARE ([6]; 500 g/ha): good (a good herbicidal activity is given at values of at least 70) | herbicidal activity against ECHCG ([7]; 500 g/ha): good (a good herbicidal activity is given at values of at least 70)

Nc1nc(Oc2c(F)cc(F)c(F)c2F)nc([C@H]2CCCO2)n1 [Example 34]
herbicidal activity against SETFA ([5]; 500 g/ha): good (a good herbicidal activity is given at values of at least 70) | herbicidal activity against AMARE ([6]; 500 g/ha): good (a good herbicidal activity is given at values of at least 70)

Nc1nc(Oc2c(F)cc(F)c(F)c2F)nc(-c2ccc(Cl)s2)n1 [Example 27]
herbicidal activity against AMARE ([2]; 500 g/ha): herbicidal activity

CC(F)c1nc(N)nc(Oc2c(F)c(F)cc(F)c2F)n1 (stereo not drawn) [Example 1, 4-(1-fluoroethyl)-6-(2,3,5,6-tetrafluorophenoxy)-1,3,5-triazin-2-amine]
herbicidal activity against ABUTH ([10]; 3000 g/ha): good (a good herbicidal activity is given at values of at least 70) | herbicidal activity against ECHCG ([8]; 3000 g/ha): very good (a very good herbicidal activity is given at values of at least 85) | herbicidal activity against SETFA ([4]; 3000 g/ha): very good (a very good herbicidal activity is given at values of at least 85)

CC(F)c1nc(N)nc(Oc2c(F)ccc(F)c2F)n1 (stereo not drawn) [Example 8]
herbicidal activity against AMARE ([2]; 1000 g/ha): very good (a very good herbicidal activity is given at values of at least 85) | herbicidal activity against VIOR [3]: very good (a very good herbicidal activity is given at values of at least 85) | herbicidal activity against SETFA ([4]; 1000 g/ha): very good (a very good herbicidal activity is given at values of at least 85)
